Legend:
[1] = biological target: T1, human sphingosine-1-phosphate receptor 1 (S1P1) (Homo sapiens, UniProt P21453); assay: β-Arrestin2 recruitment assay (PathHunter), S1P1 CHO-K1 cells; type: cell-based; conditions: for Emax: CHO-K1, efficacy normalized to maximum efficacy of fingolimod, read-out: hS1P1 B-arrestin2 SPAN; for EC50: β-arrestin2 recruitment, S1P1, read-out: hS1P1 B-arrestin2 pEC50 (converted)
Outline: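 Agonist-driven β-arrestin2 recruitment measured by β-galactosidase complementation after 60 min compound exposure at 37 °C and 1 h detection at room temperature. Cells: stable CHO-K1 line expressing tagged human S1P1 with EA-β-arrestin2, plated the night before. Data expressed relative to fingolimod.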
Target sequence in this assay (P21453 whole entry): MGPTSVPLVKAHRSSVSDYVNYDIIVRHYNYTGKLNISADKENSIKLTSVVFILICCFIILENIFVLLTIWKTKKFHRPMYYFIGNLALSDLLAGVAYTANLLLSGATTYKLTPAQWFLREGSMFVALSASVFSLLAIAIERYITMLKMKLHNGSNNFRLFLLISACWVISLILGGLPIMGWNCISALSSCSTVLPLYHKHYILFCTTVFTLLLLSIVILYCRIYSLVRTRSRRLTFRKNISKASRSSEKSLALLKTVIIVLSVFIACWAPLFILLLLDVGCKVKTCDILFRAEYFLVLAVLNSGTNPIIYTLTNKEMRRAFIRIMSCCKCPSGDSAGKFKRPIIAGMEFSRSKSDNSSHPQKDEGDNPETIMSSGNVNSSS
Target sequence in this assay (P32121 whole entry partner): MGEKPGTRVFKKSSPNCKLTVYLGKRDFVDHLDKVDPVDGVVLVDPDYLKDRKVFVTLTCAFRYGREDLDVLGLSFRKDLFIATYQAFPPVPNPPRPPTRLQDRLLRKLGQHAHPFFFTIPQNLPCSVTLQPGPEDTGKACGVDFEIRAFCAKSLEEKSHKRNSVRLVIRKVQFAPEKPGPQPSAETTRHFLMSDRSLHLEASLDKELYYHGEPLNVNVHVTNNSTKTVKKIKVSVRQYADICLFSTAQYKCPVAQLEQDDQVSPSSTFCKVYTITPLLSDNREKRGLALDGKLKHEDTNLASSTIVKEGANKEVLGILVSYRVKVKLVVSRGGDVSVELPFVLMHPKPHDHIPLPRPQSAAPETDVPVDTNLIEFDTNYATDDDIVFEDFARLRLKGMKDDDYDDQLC

[2] = biological target: T1, human sphingosine-1-phosphate receptor 1 (S1P1); assay: Inhibition of cAMP production (HTRF cAMP HiRange), S1P1 CHO-K1 cells; type: cell-based; conditions: for Emax: CHO-K1, efficacy normalized to maximum efficacy of fingolimod, read-out: hS1P1 CAMP SPAN; for EC50: inhibition of cAMP production, S1P1, read-out: hS1P1 CAMP pEC50 (converted)
Outline: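 Intracellular cAMP changes read by TR-FRET (HTRF HiRange, 1 h room temperature) after 30 min compound exposure at 37 °C. Cells: overnight-plated CHO-K1 stably expressing tagged human S1P1 with EA-β-arrestin2. Responses normalized to fingolimod.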
Target sequence in this assay (P21453 whole entry): as the sequence (P21453 whole entry) above

| Structure (SMILES) | Emax [1] | EC50 [1] | Emax [2] | EC50 [2] |
| --- | --- | --- | --- | --- |
| COc1ccc(-c2nc(-c3ccc4c(c3)nnn4C(C)(C)CO)no2)c(C)c1 [Compound 610, 2-(5-(5-(4-methoxy-2-methylphenyl)-1,2,4-oxadiazol-3-yl)-1H-benzo[d] [1,2,3]triazol-1-yl)-2-methylpropan-1-ol] | > 75% | > 10000 nM | < 75% | > 316 nM |
| COc1ccccc1-c1noc(-c2ccc3c(c2)NC(=O)CN3)n1 [Compound 614, 7-[3-(2-methoxyphenyl)-1,2,4-oxadiazol-5-yl]-1,2,3,4-tetrahydro-quinoxalin-2-one] | < 75% | > 10000 nM | > 75% | > 316 nM |
| CC(C)n1nnc2cc(-c3noc(-c4ccccc4N(C)C)n3)ccc21 [Compound 615, N,N-dimethy1-2-{3-[1-(propan-2-yl)-1H-1,2,3-benzotriazol-5-yl]-1,2,4-oxadiazol-5-yl}aniline] | > 75% | < 10000 nM | > 75% | < 316 nM |
| CCC1(CC)CC(=O)c2cc(-c3nc(-c4ccnc(S(N)(=O)=O)c4)no3)ccc2O1 [Compound 616, 4-(5-(2,2-diethyl-4-oxochroman-6-yl)-1,2,4-oxadiazol-3-yl)pyridine-2-sulfonamide] | > 75% | < 10000 nM | > 75% | < 316 nM |
| CC(C)(CO)n1nnc2cc(-c3noc(-c4ccccc4Cl)n3)ccc21 [Compound 618, 2-(5-(5-(2-chloro-phenyl)-1,2,4-oxadiazol-3-yl)-1H-benzo[d][1,2,3]triazol-1-yl)-2-methylpropan-1-ol] | < 75% | < 10000 nM | < 75% | > 316 nM |
| COc1ncccc1-c1noc(-c2ccc3c(c2)nnn3C(C)C)n1 [Compound 619, 5-(1-isopropyl-1H-benzo[d][1,2,3]triazol-5-yl)-3-(2-methoxy-pyridin-3-yl)-1,2,4-oxadiazole] | > 75% | < 10000 nM | > 75% | < 316 nM |
| CCC1(CC)CC(=O)c2cc(-c3nc(-c4ccc5ncoc5c4)no3)ccc2O1 [Compound 622, 6-(3-(benzo[d]oxazol-6-yl)-1,2,4-oxadiazol-5-yl)-2,2-diethyl-chroman-4-one] | < 75% | > 10000 nM | > 75% | < 316 nM |
| CC(C)(CO)n1nnc2cc(-c3noc(-c4ccncc4C(F)(F)F)n3)ccc21 [Compound 626, 2-methyl-2-(5-(5-(3-(trifluoro-methyl)pyridin-4-yl)-1,2,4-oxadiazol-3-yl)-1H-benzo[d] [1,2,3]triazol-1-yl)propan-1-ol] | < 75% | – | < 75% | > 316 nM |
| CC(C)Nc1ccc(-c2ncc(-c3ccc4[nH]c(=O)[nH]c4c3)cn2)cc1C#N [Compound 628, 2-(isopropylamino)-5-(5-(2-oxo-2,3-dihydro-1H-benzo[d]imidazol-5-yl)pyrimidin-2-yl)benzonitrile] | < 75% | < 10000 nM | > 75% | < 316 nM |
| Cn1cnc2ccc(-c3nnc(-c4ccc(NC(C)(C)CO)c(C#N)c4)o3)cc21 [Compound 634, 2-[(1-hydroxy-2-methylpropan-2-yl)amino]-5-[5-(1-methyl-1H-1,3-benzodiazol-6-yl)-1,3,4-oxadiazol-2-yl]benzonitrile] | < 75% | > 10000 nM | < 75% | > 316 nM |
| Cn1cnc2ccc(-c3nnc(-c4ccc(NCC(F)(F)CO)c(C#N)c4)o3)cc21 [Compound 635, 2-[(2,2-difluoro-3-hydroxypropyl)amino]-5-[5-(1-methyl-1H-1,3-benzodiazol-6-yl)-1,3,4-oxadiazol-2-yl]benzonitrile] | < 75% | < 10000 nM | < 75% | < 316 nM |
| CC(C)n1nnc2cc(-c3noc(-c4cccc5c4CCC5O)n3)ccc21 (stereo not drawn) [Compound 636, 4-{3-[1-(propan-2-yl)-1H-1,2,3-benzotriazol-5-yl]-1,2,4-oxadiazol-5-yl}-2,3-dihydro-1H-inden-1-ol] | > 75% | < 10000 nM | > 75% | < 316 nM |
| CC(C)Nc1ccc(-c2nnc(-c3ccc4oc(=O)[nH]c4c3)o2)cc1C#N [Compound 637, 5-[5-(2-oxo-2,3-dihydro-1,3-benzoxazol-5-yl)-1,3,4-oxadiazol-2-yl]-2-[(propan-2-yl)amino]benzonitrile] | > 75% | < 10000 nM | > 75% | < 316 nM |
| CC(C)Nc1ccc(-c2nnc(-c3ccc4c(c3)C(=O)NCC4)o2)cc1C#N [Compound 638, 5-[5-(1-oxo-1,2,3,4-tetrahydroisoquinolin-7-yl)-1,3,4-oxadiazol-2-yl]-2-[(propan-2-yl)amino]benzonitrile] | < 75% | > 10000 nM | < 75% | < 316 nM |

More lines, now with the values ahead:

| Emax [1] | EC50 [1] | Emax [2] | EC50 [2] | Structure (SMILES) |
| --- | --- | --- | --- | --- |
| < 75% | > 10000 nM | < 75% | > 316 nM | Cc1ccncc1-c1noc(-c2ccc3c(c2)NC(=O)CN3)n1 [Compound 613, 7-[3-(4-methylpyridin-3-yl)-1,2,4-oxadiazol-5-yl]-1,2,3,4-tetra-hydroquinoxalin-2-one] |
| > 75% | > 10000 nM | < 75% | > 316 nM | CCC1(CC)CC(=O)c2cc(-c3nc(-c4cnccn4)no3)ccc2O1 [Compound 617, 2,2-diethyl-6-(3-(pyrazin-2-yl)-1,2,4-oxadiazol-5-yl)chroman-4-one] |
| > 75% | < 10000 nM | < 75% | < 316 nM | CCC1(CC)CC(=O)c2cc(-c3nc(-c4cncnc4)no3)ccc2O1 [Compound 620, 2,2-diethyl-6-(3-(pyrimidin-5-yl)-1,2,4-oxadiazol-5-yl)chroman-4-one] |
| > 75% | > 10000 nM | > 75% | > 316 nM | CCC1(CC)CC(=O)c2cc(-c3nc(-c4cccnn4)no3)ccc2O1 [Compound 621, 2,2-diethyl-6-(3-(pyridazin-3-yl)-1,2,4-oxadiazol-5-yl)chroman-4-one] |
| < 75% | > 10000 nM | > 75% | > 316 nM | O=C1CNc2ccc(-c3nc(-c4cccnc4)no3)cc2N1 [Compound 629, 7-[3-(pyridin-3-yl)-1,2,4-oxadiazol-5-yl]-1,2,3,4-tetra-hydroquinoxalin-2-one] |
| < 75% | > 10000 nM | < 75% | > 316 nM | CCCC1CC(=O)c2ccc(-c3nc(-c4cccnc4)no3)cc2O1 (stereo not drawn) [Compound 630, 2-propyl-7-[3-(pyridin-3-yl)-1,2,4-oxadiazol-5-yl]-3,4-dihydro-2H-1-benzopyran-4-one] |
| < 75% | > 10000 nM | < 75% | > 316 nM | CCCCC1CC(=O)c2ccc(-c3nc(-c4cccnc4)no3)cc2O1 (stereo not drawn) [Compound 633, 2-butyl-7-[3-(pyridin-3-yl)-1,2,4-oxadiazol-5-yl]-3,4-dihydro-2H-1-benzopyran-4-one] |
| > 75% | > 10000 nM | < 75% | > 316 nM | CCC1(CC)CC(=O)c2cc(-c3nc(-c4ccncn4)no3)ccc2O1 [Compound 639, 2,2-diethyl-6-(3-(pyrimidin-4-yl)-1,2,4-oxadiazol-5-yl)chroman-4-one] |
